Measurements: US20250326794A1, “ANTI-CANCER LEUCINE-RICH PEPTIDES AND USES THEREOF” (KING'S COLLEGE LONDON, priority 2019, published 2025)

Key:
[1] = tested on: HEK293T (human embryonic kidney cell); experiment: cells; conditions: 72 h
[2] = tested on: HMLER (human breast cancer bulk cell); experiment: cells; conditions: 72 h
Procedure, shortened: (§1)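 MTT viability after 72 h exposure to 0–100 μM compound (final DMSO 0.5% or 0%), 5×10^3 cells/well; HMLER lines and MCF-10A in MEGM, U2OS in DMEM with 10% FBS. A550 normalized to matching vehicle controls; IC50 interpolated from dose–response curves.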

[3] = tested on: HMLER-shEcad (human breast cancer stem cell); experiment: cells; conditions: 72 h
Procedure, shortened: as §1

[4] = tested on: U2OS (human bone osteosarcoma); conditions: 72 h
Procedure, shortened: as §1

[5] = Tryptophan fluorescent binding assay, POPC vesicles; conditions: 50 μM peptide, PBS pH 7.4, lipid per peptide
Procedure, shortened: (§2)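 Peptide fixed at 50 μM, titrated with POPC or 3POPC/1POPG large unilamellar vesicles (100 nm extruded; 0-5000 μM lipid) in PBS pH 7.4. Tryptophan fluorescence (ex 280, em 300-450 nm) read after 60 min; lipid concentration giving 50% binding reported as lipid/peptide ratio.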

[6] = Tryptophan fluorescent binding assay, 3POPC/1POPG vesicles; conditions: 50 μM peptide, PBS pH 7.4, lipid per peptide
Procedure, shortened: as §2

[7] = ANTS/DPX liposome leakage assay, POPC vesicles; format: biochemical; conditions: 0.5 mM vesicles; for Peptide Concentration-induced 50% ANTS/DPX leakage at pH 4.8, POPC Vesicle: pH 4.8, lipid per peptide; for Peptide Concentration-induced 50% ANTS/DPX leakage at pH 7.4, POPC Vesicle: pH 7.4, lipid per peptide
Procedure, shortened: (§3)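 LUVs (100 nm extruded) of POPC or POPC:POPG 3:1, loaded with 5 mM ANTS/12.5 mM DPX, used at 0.5 mM lipid with peptide 0–20 μM in PBS pH 7.4 or HCl-adjusted PBS pH 4.8. Leakage read after 3 h (ex 350/em 510 nm) against 10% Triton maximum; 50% leakage expressed as lipid per peptide.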

[8] = ANTS/DPX liposome leakage assay, 3POPC/1POPG vesicles; format: biochemical; conditions: 0.5 mM vesicles; for Peptide Concentration-induced 50% ANTS/DPX leakage at pH 4.8, 3POPC/1POPG Vesicle: pH 4.8, lipid per peptide; for Peptide Concentration-induced 50% ANTS/DPX leakage at pH 7.4, 3POPC/1POPG Vesicle: pH 7.4, lipid per peptide
Procedure, shortened: as §3

Row | Structure (SMILES) | IC50 [1] [µM] | IC50 [2] [µM] | IC50 [3] [µM] | IC50 [4] [µM] | Lipid Concentration-induced 50% Peptide Binding, POPC Vesicle [5] [L/P] | Lipid Concentration-induced 50% Peptide Binding, 3POPC/1POPG Vesicle [6] [L/P] | Peptide Concentration-induced 50% ANTS/DPX leakage at pH 4.8, POPC Vesicle [7] [L/P] | Peptide Concentration-induced 50% ANTS/DPX leakage at pH 7.4, POPC Vesicle [7] [L/P] | Peptide Concentration-induced 50% ANTS/DPX leakage at pH 4.8, 3POPC/1POPG Vesicle [8] [L/P] | Peptide Concentration-induced 50% ANTS/DPX leakage at pH 7.4, 3POPC/1POPG Vesicle [8] [L/P]
1 | CC(C)C[C@H](NC(=O)CN)C(=O)N[C@@H](CC(C)C)C(=O)N[C@@H](Cc1c[nH]cn1)C(=O)N[C@@H](CC(C)C)C(=O)N[C@@H](CC(C)C)C(=O)N[C@@H](Cc1c[nH]cn1)C(=O)N[C@@H](CC(C)C)C(=O)N[C@@H](CC(C)C)C(=O)N[C@@H](CC(C)C)C(=O)N[C@@H](Cc1c[nH]cn1)C(=O)N[C@@H](C)C(=O)N[C@@H](C)C(=O)NCC(=O)N[C@@H](Cc1c[nH]c2ccccc12)C(N)=O [HHH] | 30.6 ± 4.81 | 21.1 ± 6.93 | 9.5 ± 0.99 | 185 ± 7 | 0.46 | 0.82 | 173 | 1133 | 50 | 469
2 | CC(C)C[C@H](NC(=O)CN)C(=O)N[C@@H](CC(C)C)C(=O)N[C@@H](Cc1c[nH]cn1)C(=O)N[C@@H](CC(C)C)C(=O)N[C@@H](CC(C)C)C(=O)N[C@@H](Cc1c[nH]cn1)C(=O)N[C@@H](CC(C)C)C(=O)N[C@@H](CC(C)C)C(=O)N[C@@H](CC(C)C)C(=O)N[C@@H](CCCCN)C(=O)N[C@@H](C)C(=O)N[C@@H](C)C(=O)NCC(=O)N[C@@H](Cc1c[nH]c2ccccc12)C(N)=O [HHK] | 5.25 ± 1.48 | 3.15 ± 0.07 | 1.75 ± 0.21 | 12.7 ± 1.91 | 0.68 | 0.20 | 149 | 1133 | 111 | 160
3 | CC(C)C[C@H](NC(=O)CN)C(=O)N[C@@H](CC(C)C)C(=O)N[C@@H](Cc1c[nH]cn1)C(=O)N[C@@H](CC(C)C)C(=O)N[C@@H](CC(C)C)C(=O)N[C@@H](CCCCN)C(=O)N[C@@H](CC(C)C)C(=O)N[C@@H](CC(C)C)C(=O)N[C@@H](CC(C)C)C(=O)N[C@@H](CCC(=O)O)C(=O)N[C@@H](C)C(=O)N[C@@H](C)C(=O)NCC(=O)N[C@@H](Cc1c[nH]c2ccccc12)C(N)=O [HKE] | 5.15 ± 0.64 | 2.7 ± 0.28 | 1.9 ± 0.42 | 16 ± 0.78 | 0.75 | 0.25 | 173 | 692 | 94 | 365
4 | CC(C)C[C@H](NC(=O)CN)C(=O)N[C@@H](CC(C)C)C(=O)N[C@@H](Cc1c[nH]cn1)C(=O)N[C@@H](CC(C)C)C(=O)N[C@@H](CC(C)C)C(=O)N[C@@H](CCCCN)C(=O)N[C@@H](CC(C)C)C(=O)N[C@@H](CC(C)C)C(=O)N[C@@H](CC(C)C)C(=O)N[C@@H](Cc1c[nH]cn1)C(=O)N[C@@H](C)C(=O)N[C@@H](C)C(=O)NCC(=O)N[C@@H](Cc1c[nH]c2ccccc12)C(N)=O [HKH] | 5.7 ± 0.99 | 3.45 ± 0.21 | 3.1 ± 0.57 | 18.9 ± 1.24 | 0.18 | 0.38 | 193 | 1077 | 47 | 274
5 | CC(C)C[C@H](NC(=O)CN)C(=O)N[C@@H](CC(C)C)C(=O)N[C@@H](Cc1c[nH]cn1)C(=O)N[C@@H](CC(C)C)C(=O)N[C@@H](CC(C)C)C(=O)N[C@@H](CCCCN)C(=O)N[C@@H](CC(C)C)C(=O)N[C@@H](CC(C)C)C(=O)N[C@@H](CC(C)C)C(=O)N[C@@H](CCCCN)C(=O)N[C@@H](C)C(=O)N[C@@H](C)C(=O)NCC(=O)N[C@@H](Cc1c[nH]c2ccccc12)C(N)=O [HKK] | 9.5 ± 0.99 | 3.4 ± 0.71 | 2.6 ± 0.42 | 12.23 ± 0.11 | 0.18 | 0.14 | 106 | 657 | 106 | 90
6 | CC(C)C[C@H](NC(=O)CN)C(=O)N[C@@H](CC(C)C)C(=O)N[C@@H](CCCCN)C(=O)N[C@@H](CC(C)C)C(=O)N[C@@H](CC(C)C)C(=O)N[C@@H](CCC(=O)O)C(=O)N[C@@H](CC(C)C)C(=O)N[C@@H](CC(C)C)C(=O)N[C@@H](CC(C)C)C(=O)N[C@@H](Cc1c[nH]cn1)C(=O)N[C@@H](C)C(=O)N[C@@H](C)C(=O)NCC(=O)N[C@@H](Cc1c[nH]c2ccccc12)C(N)=O [KEH] | 5.65 ± 0.07 | 3.3 ± 0.42 | 2.35 ± 0.07 | 49.2 ± 5.3 | 1.00 | 0.50 | 188 | 995 | 68 | 286
7 | CC(C)C[C@H](NC(=O)CN)C(=O)N[C@@H](CC(C)C)C(=O)N[C@@H](CCCCN)C(=O)N[C@@H](CC(C)C)C(=O)N[C@@H](CC(C)C)C(=O)N[C@@H](CCC(=O)O)C(=O)N[C@@H](CC(C)C)C(=O)N[C@@H](CC(C)C)C(=O)N[C@@H](CC(C)C)C(=O)N[C@@H](CCCCN)C(=O)N[C@@H](C)C(=O)N[C@@H](C)C(=O)NCC(=O)N[C@@H](Cc1c[nH]c2ccccc12)C(N)=O [KEK] | 3.2 ± 0.14 | 1.6 ± 0.14 | 1.35 ± 0.07 | 8.15 ± 0.49 | 0.47 | 0.50 | 110 | 1173 | 126 | 438
8 | CC(C)C[C@H](NC(=O)CN)C(=O)N[C@@H](CC(C)C)C(=O)N[C@@H](CCCCN)C(=O)N[C@@H](CC(C)C)C(=O)N[C@@H](CC(C)C)C(=O)N[C@@H](Cc1c[nH]cn1)C(=O)N[C@@H](CC(C)C)C(=O)N[C@@H](CC(C)C)C(=O)N[C@@H](CC(C)C)C(=O)N[C@@H](CCC(=O)O)C(=O)N[C@@H](C)C(=O)N[C@@H](C)C(=O)NCC(=O)N[C@@H](Cc1c[nH]c2ccccc12)C(N)=O [KHE] | 26 ± 2.83 | 3.7 ± 0.14 | 2.92 ± 0.17 | 53 ± 2.83 | 0.88 | 0.71 | 183 | 981 | 156 | 188
9 | CC(C)C[C@H](NC(=O)CN)C(=O)N[C@@H](CC(C)C)C(=O)N[C@@H](CCCCN)C(=O)N[C@@H](CC(C)C)C(=O)N[C@@H](CC(C)C)C(=O)N[C@@H](Cc1c[nH]cn1)C(=O)N[C@@H](CC(C)C)C(=O)N[C@@H](CC(C)C)C(=O)N[C@@H](CC(C)C)C(=O)N[C@@H](Cc1c[nH]cn1)C(=O)N[C@@H](C)C(=O)N[C@@H](C)C(=O)NCC(=O)N[C@@H](Cc1c[nH]c2ccccc12)C(N)=O [KHH] | 7.75 ± 0.78 | 5.2 ± 0.71 | 4.45 ± 0.49 | 39.8 ± 5.3 | 3.50 | 0.94 | 227 | 1153 | 48 | 329
10 | CC(C)C[C@H](NC(=O)CN)C(=O)N[C@@H](CC(C)C)C(=O)N[C@@H](CCCCN)C(=O)N[C@@H](CC(C)C)C(=O)N[C@@H](CC(C)C)C(=O)N[C@@H](Cc1c[nH]cn1)C(=O)N[C@@H](CC(C)C)C(=O)N[C@@H](CC(C)C)C(=O)N[C@@H](CC(C)C)C(=O)N[C@@H](CCCCN)C(=O)N[C@@H](C)C(=O)N[C@@H](C)C(=O)NCC(=O)N[C@@H](Cc1c[nH]c2ccccc12)C(N)=O [KHK] | 3.55 ± 0.78 | 2.59 ± 0.92 | 1.4 ± 0.14 | 12.9 ± 1.24 | 0.17 | 0.38 | 140 | 1153 | 53 | 193
